In the experiment the target is TACE (Homo sapiens (Human), UniProt P78536). The experiment is described as follows: TACE inhibition test (in vitro). It is filed as biochemical. Conditions: fluorescent synthetic substrate, 37° C., 1.5 hours. The method, then:
The nucleotide sequence of TACE has been reported by Moss et al. (Moss, M. L. et al., Nature 1997, 385, 733-736). Accordingly, the cDNA of TACE was obtained according to the prescribed method from THP-1 cells or the like, and then incorporated the cDNA into an expression vector. Next, this vector was transformed into mammalian cells or insect cells, and TACE expression was obtained.
The TACE inhibition test was carried out by measuring TACE activity in the presence and the absence of the test substance using the thus-obtained TACE as an enzyme, and a fluorescent synthetic substrate Nma(N-methylanthranilic acid)-Leu-Ala-Gln-Ala-Val-Arg-Ser-Ser-Lys(Dnp(dinitrophenyl))-D-Arg-NH2 (SEQ ID NO: 1) including the TACE-cleaved sequence of a membrane-bound TNF as a substrate. The TACE inhibition test method is shown below.
Namely, 90 μL of an enzyme solution prepared with an assay buffer A (50 mM tris-hydrochloric acid buffer (pH 7.5) including 200 mM sodium chloride, 5 mM calcium chloride, 10 μM zinc sulfate, and 2 mg/mL bovine serum albumin) and 90 μL of a fluorescent synthetic substrate prepared with an assay buffer B (50 mM tris-hydrochloric acid buffer (pH 7.5) including 200 mM sodium chloride, 5 mM calcium chloride, 10 μM zinc sulfate, and 0.05% PLURONIC F-68) were mixed together, and reacted at 37° C. for 1.5 hours. Enzyme activity was then determined by measuring with a fluorescence intensity meter (Labsystems, Fluoroskan Ascent) at an excitation wavelength of 355 nm and a measurement wavelength of 460 nm.
From the enzyme activity in the presence or the absence of the test substance, the inhibition rate was determined, and the 50% inhibitiory concentration (IC50) of the test substance was calculated.
TACE, sequence (P78536 215-824): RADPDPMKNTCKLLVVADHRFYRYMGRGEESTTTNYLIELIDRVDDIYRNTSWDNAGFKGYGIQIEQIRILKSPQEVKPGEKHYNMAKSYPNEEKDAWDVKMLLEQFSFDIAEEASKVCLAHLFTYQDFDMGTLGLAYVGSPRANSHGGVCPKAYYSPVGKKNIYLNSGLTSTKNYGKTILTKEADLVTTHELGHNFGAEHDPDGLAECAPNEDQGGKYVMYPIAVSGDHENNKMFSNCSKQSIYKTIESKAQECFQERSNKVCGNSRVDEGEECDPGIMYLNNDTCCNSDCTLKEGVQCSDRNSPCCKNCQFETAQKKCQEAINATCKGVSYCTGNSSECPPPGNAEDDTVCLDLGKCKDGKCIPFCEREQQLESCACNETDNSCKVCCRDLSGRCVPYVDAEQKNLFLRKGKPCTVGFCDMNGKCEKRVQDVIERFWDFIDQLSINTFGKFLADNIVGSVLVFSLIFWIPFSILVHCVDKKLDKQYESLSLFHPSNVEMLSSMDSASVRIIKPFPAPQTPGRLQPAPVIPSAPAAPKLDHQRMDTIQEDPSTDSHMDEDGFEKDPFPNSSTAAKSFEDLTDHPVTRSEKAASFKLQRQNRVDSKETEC
For the molecule `Cc1cccn(CC2(c3cccc(-c4ccccn4)c3)NC(=O)NC2=O)c1=O` (stereo not shown) [Compound I-94], the IC50 (as a rule, the concentration needed to halve the response being measured) was below 100 nM.
Consider `Cc1cccn(CC2(c3cccc(-c4ccncc4)c3)NC(=O)NC2=O)c1=O` (stereo not shown) [Compound I-95], for which the half-inhibitory concentration (IC50) was below 100 nM.
Regarding `Cc1cccn(CC2(c3cccc(-c4ccccc4)c3)NC(=O)NC2=O)c1=O` (stereo not shown) [Compound I-96], the IC50 is below 100 nM.
On to `Cc1cccn(CC2(c3ccc(Oc4ccc(F)cc4F)cc3)NC(=O)NC2=O)c1=O` (stereo not shown) [Compound I-97], for which the IC50 was below 100 nM.
To `Cc1cccn(CC2(c3ccc(Oc4ccc(F)c(F)c4)cc3)NC(=O)NC2=O)c1=O` (stereo not shown) [Compound I-98] belongs below 100 nM.
In turn, `Cc1cccn(CC2(c3ccc(Oc4cc(F)cc(F)c4)cc3)NC(=O)NC2=O)c1=O` (stereo not shown) [Compound I-99] gave an IC50 below 100 nM.
`Cc1cccn(CC2(c3ccc(Oc4cccc(C(F)(F)F)c4)cc3)NC(=O)NC2=O)c1=O` (stereo not shown) [Compound I-100] came in with an IC50 below 100 nM.
In the case of `Cc1cccn(CC2(c3ccc(Oc4cccnc4)cc3)NC(=O)NC2=O)c1=O` (stereo not shown) [Compound I-101], the IC50 is below 100 nM.
In turn, `Cc1cccn(CC2(c3ccc(Sc4ccccc4)c(F)c3)NC(=O)NC2=O)c1=O` (stereo not shown) [Compound I-103] yielded an IC50 below 100 nM.
To `Cc1cccn(CC2(c3ccc(Oc4ccccc4F)c(F)c3)NC(=O)NC2=O)c1=O` (stereo not shown) [Compound I-104] belongs below 100 nM.
The value for `Cc1cccn(CC2(c3ccc4c(c3)OCCCO4)NC(=O)NC2=O)c1=O` (stereo not shown) [Compound I-105] was below 100 nM; that for `Cc1cccn(CC2(c3ccc(C#Cc4ccccc4)cc3)NC(=O)NC2=O)c1=O` (stereo not shown) [Compound I-106] was below 100 nM.
The value for `Cc1cccn(CC2(c3ccc(CCc4ccccc4)cc3)NC(=O)NC2=O)c1=O` (stereo not shown) [Compound I-107] was below 100 nM; that for `C=C(C)c1ccc(C2(Cn3cccc(C)c3=O)NC(=O)NC2=O)cc1` (stereo not shown) [Compound I-108] was below 100 nM.
Molecule `Cc1cccn(CC2(c3ccc(/C=C/C4CCCCC4)cc3)NC(=O)NC2=O)c1=O` (stereo not shown) [Compound I-109] came in with an IC50 of 100 to 1000 nM.
The value for `Cc1cccn(CC2(c3ccc(C#Cc4ccccn4)cc3)NC(=O)NC2=O)c1=O` (stereo not shown) [Compound I-110] was below 100 nM.
As for `Cc1cccn(CC2(c3ccc(Oc4ccc(F)cc4)c(F)c3)NC(=O)NC2=O)c1=O` (stereo not shown) [Compound I-111], the IC50 is below 100 nM.
To `Cc1cccn(CC2(c3ccc(Oc4cccc(F)c4)c(F)c3)NC(=O)NC2=O)c1=O` (stereo not shown) [Compound I-112] belongs below 100 nM.
Take `COc1ccccc1Oc1ccc(C2(Cn3cccc(C)c3=O)NC(=O)NC2=O)cc1` (stereo not shown) [Compound I-113]: the IC50 was below 100 nM.
To `COc1ccccc1Oc1ccc(C2(Cn3cccc(C)c3=O)NC(=O)NC2=O)cc1F` (stereo not shown) [Compound I-114] belongs below 100 nM.
On to `Cc1cccn(CC2(c3ccc(CCc4ccccn4)cc3)NC(=O)NC2=O)c1=O` (stereo not shown) [Compound I-115], for which the IC50 is below 100 nM.
With `CCc1ccc(C2(Cn3cccc(C)c3=O)NC(=O)NC2=O)cc1` (stereo not shown) [Compound I-116], the IC50 is below 100 nM.
`Cc1cccn(CC2(c3ccc(C(C)C)cc3)NC(=O)NC2=O)c1=O` (stereo not shown) [Compound I-117] showed an IC50 below 100 nM.
`Cc1cccn(CC2(c3ccc(CCC4CCCCC4)cc3)NC(=O)NC2=O)c1=O` (stereo not shown) [Compound I-118] came in with a half-inhibitory concentration (IC50) of 100 to 1000 nM.
The value for `CCOc1ccc(C2(Cn3cccc(C)c3=O)NC(=O)NC2=O)cc1` (stereo not shown) [Compound I-119] was below 100 nM; that for `Cc1cccn(CC2(c3ccc(OC(C)C)cc3)NC(=O)NC2=O)c1=O` (stereo not shown) [Compound I-120] was below 100 nM.
`Cc1cccn(CC2(c3ccc(CC(C)C)cc3)NC(=O)NC2=O)c1=O` (stereo not shown) [Compound I-121]: the IC50 was below 100 nM.
Consider `Cc1cccn(CC2(c3ccc(Oc4cccnc4)c(F)c3)NC(=O)NC2=O)c1=O` (stereo not shown) [Compound I-122], for which the 50% inhibitory concentration (IC50) was below 100 nM.
Turning to `Cc1cccn(CC2(c3ccc(Oc4ccccc4)c(Cl)c3)NC(=O)NC2=O)c1=O` (stereo not shown) [Compound I-123], the IC50 is below 100 nM.
Consider `Cc1cccn(CC2(c3ccc(OC4CCCC4)cc3)NC(=O)NC2=O)c1=O` (stereo not shown) [Compound I-124], for which the IC50 is below 100 nM.
Molecule `Cc1cccn(CC2(c3ccc(Cl)c(Cl)c3)NC(=O)NC2=O)c1=O` (stereo not shown) [Compound I-125] showed a half-inhibitory concentration (IC50) below 100 nM.
The value for `Cc1cccn(CC2(c3ccc(F)c(Cl)c3)NC(=O)NC2=O)c1=O` (stereo not shown) [Compound I-126] was below 100 nM; that for `COc1cc(C2(Cn3cccc(C)c3=O)NC(=O)NC2=O)cc(F)c1F` (stereo not shown) [Compound I-127] was below 100 nM.
Turning to `Cc1ccc(C2(Cn3cccc(C)c3=O)NC(=O)NC2=O)c(F)c1F` (stereo not shown) [Compound I-128], the IC50 is below 100 nM.
To `Cc1cc(C2(Cn3cccc(C)c3=O)NC(=O)NC2=O)ccc1OC1CCCCC1` (stereo not shown) [Compound I-131] belongs below 100 nM; to `O=C1NC(=O)C(Cn2cccc(F)c2=O)(c2ccccc2)N1` (stereo not shown) [Compound I-132], below 100 nM.
The molecule `COc1ccc(C2(Cn3cccc(F)c3=O)NC(=O)NC2=O)cc1` (stereo not shown) [Compound I-133] yielded an IC50 below 100 nM.
Turning to `N#Cc1ccc(C2(Cn3cccc(F)c3=O)NC(=O)NC2=O)cc1` (stereo not shown) [Compound I-134], the IC50 was below 100 nM.
The value for `O=C1NC(=O)C(Cn2cccc(F)c2=O)(c2ccc3ccccc3c2)N1` (stereo not shown) [Compound I-135] was below 100 nM; that for `O=C1NC(=O)C(Cn2cccc(Cl)c2=O)(c2ccc(F)cc2)N1` (stereo not shown) [Compound I-136] was below 100 nM.
Consider `COc1ccc(C2(Cn3cccc(Cl)c3=O)NC(=O)NC2=O)cc1` (stereo not shown) [Compound I-137], for which the concentration for half-maximal inhibition (IC50) is below 100 nM.
As to `N#Cc1ccc(C2(Cn3cccc(Cl)c3=O)NC(=O)NC2=O)cc1` (stereo not shown) [Compound I-138], the IC50 is below 100 nM.
`O=C1NC(=O)C(Cn2cccc(Br)c2=O)(c2ccccc2)N1` (stereo not shown) [Compound I-139]: the IC50 was below 100 nM.
The value for `O=C1NC(=O)C(Cn2cccc(C(F)(F)F)c2=O)(c2ccccc2)N1` (stereo not shown) [Compound I-140] was below 100 nM; that for `COc1ccc(C2(Cn3cccc(C(F)(F)F)c3=O)NC(=O)NC2=O)cc1` (stereo not shown) [Compound I-141] was below 100 nM; that for `N#Cc1ccc(C2(Cn3cccc(C(F)(F)F)c3=O)NC(=O)NC2=O)cc1` (stereo not shown) [Compound I-142] was below 100 nM.
To `COc1cccn(CC2(c3ccccc3)NC(=O)NC2=O)c1=O` (stereo not shown) [Compound I-143] belongs 100 to 1000 nM; to `C=C(C)c1cccn(CC2(c3ccc(OC)cc3)NC(=O)NC2=O)c1=O` (stereo not shown) [Compound I-144], 100 to 1000 nM.
The molecule `O=C1NC(=O)C(Cn2cccc(F)c2=O)(c2ccc(F)c(F)c2)N1` (stereo not shown) [Compound I-145] registered an IC50 below 100 nM.
The value for `O=C1NC(=O)C(Cn2cccc(Cl)c2=O)(c2ccc(F)c(F)c2)N1` (stereo not shown) [Compound I-146] was below 100 nM; that for `O=C1NC(=O)C(Cn2cccc(Br)c2=O)(c2ccc(F)c(F)c2)N1` (stereo not shown) [Compound I-147] was below 100 nM; that for `O=C1NC(=O)C(Cn2cccc(CO)c2=O)(c2ccc(F)c(F)c2)N1` (stereo not shown) [Compound I-148] was 100 to 1000 nM.
Turning to `O=C1NC(=O)C(Cn2cccc(Br)c2=O)(c2ccc(Cc3ccccc3)cc2)N1` (stereo not shown) [Compound I-149], the IC50 was below 100 nM.
`O=C1NC(=O)C(Cn2cccc(Cl)c2=O)(c2ccc(Cc3ccccc3)cc2)N1` (stereo not shown) [Compound I-150] gave an IC50 below 100 nM.
The value for `O=C1NC(=O)C(Cn2cccc(CO)c2=O)(c2ccc(Cc3ccccc3)cc2)N1` (stereo not shown) [Compound I-151] was 100 to 1000 nM; that for `O=C1NC(=O)C(Cn2cccc(F)c2=O)(c2ccc(Cc3ccccc3)cc2)N1` (stereo not shown) [Compound I-152] was below 100 nM.
The value for `Cc1cccn(CC2(c3cccc(F)c3F)NC(=O)NC2=O)c1=O` (stereo not shown) [Compound I-153] was below 100 nM.
As to `Cc1cccn(CC2(c3cc(F)ccc3F)NC(=O)NC2=O)c1=O` (stereo not shown) [Compound I-154], the IC50 is below 100 nM.
As to `O=C1NC(=O)C(Cn2ccccc2=O)(c2ccc(F)c(F)c2)N1` (stereo not shown) [Compound I-155], the IC50 is below 100 nM.
As to `O=C1NC(=O)C(Cn2ccccc2=O)(c2ccc(Cc3ccccc3)cc2)N1` (stereo not shown) [Compound I-156], the IC50 fell in the range of 100 to 1000 nM.
The value for `O=C1NC(=O)C(Cn2ccccc2=O)(c2cc(F)c(F)c(F)c2)N1` (stereo not shown) [Compound I-157] was below 100 nM.

The record behind these values is patent US10000476B2, “Pyridone derivative, pharmaceutical containing the same and methods of use thereof” (KAKEN PHARMACEUTICAL CO., LTD., priority 2011, dated 2018).
